Laboratory results as given in patent publication US7790738B2, “Methods of treating and preventing AIDS using of COX-2 inhibitors” (Lauras AS, priority 2000, dated 2010).
Values joined by “and” are separate entries in the source; they are usually repeats but may differ in a detail not shown here. Equal values may be shown once. Read-outs that look alike come from different tables or passages of the source. Marks after values point to notes of the source that are not given here.

How the values were obtained:
[1] = system: lymph node mononuclear cells from MAIDS and control mice; assay: anti-CD3 induced T cell proliferation in mixed unsorted lymph node cells, compound added in vitro; format: cell-based, mouse
Procedure: T cell activation was accomplished by cross-ligation of anti-CD3 (mAb 2C11; 4 μg/ml). […] Cells were cultured for 72 h during which [^3H] -thymidine was included for the last 4 h;
T cell activation was accomplished by cross-ligation of anti-CD3 (mAb 2C11; 4 μg/ml). […] Cells were cultured for 72 h during which [^3H ]-thymidine was included for the last 4 h;
The optimal concentration of antibody was titrated carefully in the initial setup and parallel experiments at several different dilutions of antibody was always performed. Proliferation was analyzed by incubating cells for 72 hours during which [^3H]-thymidine (0.4 μCi) was included for the last 4 hours and collected with a cell harvester (Skatron, Sterling, Va., USA) onto glass fiber filters. Incorporated precursor was counted in a scintillation analyzer (Tri-Carb, Packard, Meriden, Conn., USA). cAMP analogs, when used, were added 30 min prior to activation by addition of anti-CD3 antibodies.

HIV infected patients = assay: phase II clinical trial, indomethacin in vivo, T cell proliferation after activation; conditions: for T cell immune function, patients responding: 7 patients
Procedure: T cell activation was accomplished by cross-ligation of anti-CD3 (mAb SpVT3b). […] Bars show mean values±SD from triplicate determinations. Cells were cultured for 72 h during which [^3H]-thymidine was included for the last 16 h;
Mean values from triplicate determinations are plotted, connector lines show development of each patient;
Peripheral blood CD3+ T cells were purified by negative selection from buffycoats from normal healthy donors (Ullevaal University Hospital Blood Center, Oslo, Norway). Briefly, peripheral blood mononuclear cells were isolated by density gradient (Lymphoprep, NycoMed, Oslo, Norway) centrifugation followed by negative selection using monodisperse magnetic beads directly coated with antibodies to CD14 and CD19 and rat anti-mouse IgG beads coated with antibodies to CD56 and a magnet. […] All steps were performed at 4° C.
Proliferation assays were performed by incubation of 0.75×10^6 CD3+ T cells/ml in a 100 μl volume in flat-bottom 96-well microtiter plates. […] The optimal concentration of antibody was titrated carefully in the initial setup and parallel experiments at several different dilutions of antibody were always performed. Proliferation was analyzed by incubating cells for 72 hours during which [^3H]-thymidine was included for the last 16 hours. Cells were washed and harvested onto glass filters and subsequently analyzed by β-scintillation counting. CAMP analogs, when used, were added 30 min prior to activation by addition of anti-CD3 antibodies. 8-CPT-cAMP was from Sigma (St. Louis, Mo.).

COX-1 [2] = molecular target: COX-1 (Cavia porcellus, UniProt H0V9X9); conditions: read-out: COX-1 IC50; guinea pig macrophage model; Engelhart et al. 1995; cited from earlier work
COX-2 [3] = molecular target: T1, COX-2 (Mus musculus, UniProt Q05769); conditions: cited from earlier work; for IC50: read-out: COX-2 IC50
T1 construct: endogenous in cells
T1 sequence (Q05769 18-604): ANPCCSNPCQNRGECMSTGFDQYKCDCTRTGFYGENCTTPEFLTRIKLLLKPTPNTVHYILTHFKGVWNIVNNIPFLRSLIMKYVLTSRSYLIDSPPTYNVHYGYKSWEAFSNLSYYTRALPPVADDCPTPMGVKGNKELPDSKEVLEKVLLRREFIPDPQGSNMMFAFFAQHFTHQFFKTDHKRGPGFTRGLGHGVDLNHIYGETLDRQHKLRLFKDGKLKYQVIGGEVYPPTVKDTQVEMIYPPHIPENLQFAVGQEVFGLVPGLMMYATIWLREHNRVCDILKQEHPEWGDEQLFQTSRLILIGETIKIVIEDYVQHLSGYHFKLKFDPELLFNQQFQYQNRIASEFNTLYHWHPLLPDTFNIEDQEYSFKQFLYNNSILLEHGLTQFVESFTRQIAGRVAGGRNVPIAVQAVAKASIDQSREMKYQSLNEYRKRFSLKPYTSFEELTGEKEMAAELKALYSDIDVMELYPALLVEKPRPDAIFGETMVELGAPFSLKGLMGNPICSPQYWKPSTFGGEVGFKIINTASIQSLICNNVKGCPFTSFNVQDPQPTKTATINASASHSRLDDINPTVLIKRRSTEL

COX-1 [4] = molecular target: T2, COX-1 (Bos taurus, UniProt O62664)
T2 construct: IC50 values for NSAID's in intact cell on COX-1; endogenous in cells; host or cells: bovine endothelial cells
T2 sequence (O62664 25-600): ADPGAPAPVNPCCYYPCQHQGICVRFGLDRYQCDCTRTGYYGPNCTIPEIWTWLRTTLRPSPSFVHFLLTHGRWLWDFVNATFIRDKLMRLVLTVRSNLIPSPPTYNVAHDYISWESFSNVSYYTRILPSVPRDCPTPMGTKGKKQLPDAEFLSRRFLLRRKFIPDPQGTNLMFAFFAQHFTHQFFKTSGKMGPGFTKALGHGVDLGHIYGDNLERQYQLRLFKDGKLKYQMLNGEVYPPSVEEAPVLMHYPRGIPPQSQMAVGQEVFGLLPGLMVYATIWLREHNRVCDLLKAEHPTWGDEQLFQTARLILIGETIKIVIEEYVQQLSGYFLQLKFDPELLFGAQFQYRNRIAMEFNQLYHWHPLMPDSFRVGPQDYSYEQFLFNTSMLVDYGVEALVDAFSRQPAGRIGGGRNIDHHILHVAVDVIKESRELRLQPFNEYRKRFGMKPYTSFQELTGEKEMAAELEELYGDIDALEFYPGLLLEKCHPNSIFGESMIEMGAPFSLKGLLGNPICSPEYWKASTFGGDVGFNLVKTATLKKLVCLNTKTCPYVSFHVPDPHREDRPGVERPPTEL

[5] = system: CD3+ T cells from MAIDS and control mice; assay: TCR/CD3 stimulated proliferation of isolated T cells, [3H]-thymidine incorporation; format: cell-based, mouse; conditions: median, read-out: Inhibition of proliferation by 8-CPT-cAMP (IC50)
Procedure: TCR/CD3 stimulated T cell proliferation was assessed with isolated T cells from MAIDS mice (A) and uninfected control mice (B). The effect of increasing concentrations of cAMP agonist (8-CPT-cAMP) on TCR/CD3 stimulated proliferation of CD3+ T cells isolated from MAIDS (open circles, dotted line) and control mice (filled circles and solid line) was examined separately in the same experiments (C). Mean values of triplicate determinations±SD are shown. See Table 4 for summarised data (n=11). Note: Scaling differs in A and B, whereas in C the TCR/CD3 induced proliferation in the absence of cAMP agonist is normalized to 100% for both MAIDS and control T cells;
Activation was achieved by subsequent addition of monodisperse magnetic beads coated with sheep anti-mouse IgG (Dynal, cat. no. 110.02) at a cell:bead ratio of 1:1 followed by addition of anti-CD3 (clone 2C11) at a final dilution of 4 μg/ml for the experiments shown. […] 8-CPT-cAMP was from Sigma (St. Louis, Mo.) and Sp- and Rp-8-Br-cAMPS were from BioLog Life Science Company (Bremen, Germany) and were all dissolved to concentrations of 4 to 10 mM in PBS and concentrations calculated using the extinction coefficients given by the manufacturer.

COX-2 [6] = molecular target: T3, COX-2 (Homo sapiens, UniProt P35354); conditions: cited from earlier work; for COX-2 selectivity COX-1/COX-2: ratio of IC50, recombinant human enzymes; for IC50: read-out: COX-2 IC50
T3 sequence (P35354 18-604): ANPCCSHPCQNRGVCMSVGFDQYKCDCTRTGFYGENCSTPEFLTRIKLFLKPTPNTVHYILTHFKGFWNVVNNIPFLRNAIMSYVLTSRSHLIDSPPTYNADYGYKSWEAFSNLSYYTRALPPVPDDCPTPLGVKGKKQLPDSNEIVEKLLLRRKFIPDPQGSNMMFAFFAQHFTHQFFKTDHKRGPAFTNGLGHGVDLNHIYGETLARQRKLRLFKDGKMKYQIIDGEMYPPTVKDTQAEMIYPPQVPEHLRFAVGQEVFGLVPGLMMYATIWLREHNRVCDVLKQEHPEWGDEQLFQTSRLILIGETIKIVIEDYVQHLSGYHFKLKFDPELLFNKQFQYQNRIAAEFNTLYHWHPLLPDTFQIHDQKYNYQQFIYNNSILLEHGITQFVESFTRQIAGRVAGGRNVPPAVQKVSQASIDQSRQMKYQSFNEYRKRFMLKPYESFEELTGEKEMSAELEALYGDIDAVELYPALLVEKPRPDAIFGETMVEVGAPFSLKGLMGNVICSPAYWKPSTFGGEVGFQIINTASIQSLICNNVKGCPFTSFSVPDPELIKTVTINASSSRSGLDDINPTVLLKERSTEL

COX-1 [7] = molecular target: COX-1 (Homo sapiens, UniProt P23219); conditions: recombinant human PGH synthesis; Laneuvill et al. 1994; cited from earlier work
[8] = read-out: COX-1 IC50; intact cell, bovine endothelial cells; Taketo 1998; cited from earlier work
[9] = intact cell, bovine endothelial cells; Taketo 1998; read-out: COX-1 IC50; cited from earlier work
[10] = intact cell, stimulated macrophages, Taketo 1998
[11] = recombinant human PGH synthesis, Laneuvill et al. 1994

Chain of COX-1 (Cavia porcellus, UniProt H0V9X9) (H0V9X9 entry or part of it): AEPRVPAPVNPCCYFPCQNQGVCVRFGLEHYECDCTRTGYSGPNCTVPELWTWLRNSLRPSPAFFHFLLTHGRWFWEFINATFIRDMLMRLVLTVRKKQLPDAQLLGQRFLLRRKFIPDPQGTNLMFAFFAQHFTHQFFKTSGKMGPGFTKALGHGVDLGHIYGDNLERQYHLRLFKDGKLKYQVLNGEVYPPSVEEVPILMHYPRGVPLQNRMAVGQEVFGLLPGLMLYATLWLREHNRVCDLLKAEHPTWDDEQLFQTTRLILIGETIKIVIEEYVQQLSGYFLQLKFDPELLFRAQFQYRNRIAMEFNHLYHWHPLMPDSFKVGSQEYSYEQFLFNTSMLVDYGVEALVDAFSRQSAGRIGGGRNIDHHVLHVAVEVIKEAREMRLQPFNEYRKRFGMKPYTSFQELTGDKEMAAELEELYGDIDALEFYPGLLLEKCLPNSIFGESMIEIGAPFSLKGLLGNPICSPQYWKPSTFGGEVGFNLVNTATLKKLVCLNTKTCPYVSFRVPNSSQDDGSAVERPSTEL
Chain of COX-1 (Homo sapiens, UniProt P23219) (P23219 24-599): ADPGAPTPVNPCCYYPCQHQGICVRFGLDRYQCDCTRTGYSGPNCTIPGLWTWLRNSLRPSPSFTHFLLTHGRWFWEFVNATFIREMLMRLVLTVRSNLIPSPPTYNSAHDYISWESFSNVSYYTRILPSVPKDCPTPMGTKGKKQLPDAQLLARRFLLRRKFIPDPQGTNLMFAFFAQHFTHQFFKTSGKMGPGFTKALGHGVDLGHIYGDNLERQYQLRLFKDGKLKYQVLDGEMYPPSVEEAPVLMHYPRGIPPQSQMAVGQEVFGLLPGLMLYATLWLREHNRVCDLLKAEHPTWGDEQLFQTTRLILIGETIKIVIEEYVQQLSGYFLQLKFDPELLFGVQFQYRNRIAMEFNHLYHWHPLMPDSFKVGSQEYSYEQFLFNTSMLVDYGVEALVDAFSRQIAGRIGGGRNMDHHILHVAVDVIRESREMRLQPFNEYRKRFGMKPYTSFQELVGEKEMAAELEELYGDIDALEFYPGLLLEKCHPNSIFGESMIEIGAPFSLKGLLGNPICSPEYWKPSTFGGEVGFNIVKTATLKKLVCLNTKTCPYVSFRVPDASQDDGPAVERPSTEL

## COc1ccc2c(c1)c(CC(=O)O)c(C)n2C(=O)c1ccc(Cl)cc1 [Indomethacin]
[1]; MAIDS mice, median, n = 7, no anti-CD3
  T cell proliferation, Indomethacin: 1412
[1]; MAIDS mice, median, n = 8, anti-CD3 plus indomethacin
  T cell proliferation, Indomethacin/Anti-CD3: 15601**
[1]; control cultures of uninfected mice, indomethacin
  effect on anti-CD3 induced proliferation: did not alter proliferation
[1]; individual MAIDS mice, anti-CD3 plus indomethacin 50 ng/ml
  T cell proliferation, Indomethacin/Anti-CD3: 19624 and 31830 and 42244 and 9381 and 47926 and 1345 and 11579 and 8545
[1]; individual MAIDS mice, no anti-CD3, indomethacin 50 ng/ml
  T cell proliferation, Indomethacin: 2363 and 7316 and 1412 and 1129 and 265 and 335 and 4317
[1]; mixed lymph node cells of five MAIDS-infected mice, 72 h
  effect on anti-CD3 induced proliferation: strongly increased the proliferation of cells from five MAIDS-infected mice to levels comparable to that of control mice
HIV infected patients; after 14 days of treatment, 25 mg three times a day
  T cell immune function, patients responding: two of seven patients had clearly elevated T cell immune function
HIV infected patients; two weeks after discontinuation, versus day 0
  T cell immune function, patients responding: five of seven patients had elevated immune responsiveness
HIV infected patients; HIV patients, 50 mg 3 times a day
  adverse events: epigastrial pain and dyspepsia
HIV infected patients; patient 3, 25 mg three times a day perorally, 14 days, persisted to day 28
  increase of T cell responses after in vivo treatment: approximately 2.5 fold
HIV infected patients; patients 1 and 2, 25 mg three times a day perorally, 14 days
  T cell immune function after in vivo treatment: did not increase their immune function
COX-1 [2]
  IC50: 0.00021 µM

## CC(C(=O)O)c1ccc2c(c1)[nH]c1ccc(Cl)cc12 (stereo not drawn) [Carprofen]
COX-2 [3]
  COX-2 selectivity COX-1/COX-2: 1
  IC50: 3 µM
COX-1 [4]; [8]
  IC50: 3 µM

## CC(C(=O)O)c1ccc(-c2ccccc2)c(F)c1 (stereo not drawn) [Flubiprofen]
COX-1 [4]; [9]
  IC50: 0.02 µM

## NC(=O)N1C(=O)/C(=C(\O)c2cccs2)c2cc(Cl)ccc21 [Teridep]
COX-1 [2]
  IC50: 0.393 µM

## COc1ccc2cc([C@H](C)C(=O)O)ccc2c1 [Naproxen]
COX-2 [3]
  IC50: 1.3 µM

## Cc1c(Cl)cccc1Nc1ccccc1C(=O)O [Tolfenamic acid]
COX-2 [3]; [10]
  IC50: 0.005 µM
COX-2 [3]; ratio of IC50, intact cells
  COX-2 selectivity COX-1/COX-2: 0.06
COX-1 [4]; [9]
  IC50: 0.0003 µM

## CN1C(C(=O)Nc2ccccn2)=C(O)c2ccccc2S1(=O)=O [Piroxicam]
COX-1 [2]
  IC50: 0.00527 µM

## Nc1ncnc2c1nc(Sc1ccc(Cl)cc1)n2[C@@H]1O[C@@H]2COP(=O)(O)O[C@H]2[C@H]1O [8-CPT-cAMP]
[5]; MAIDS mice, n = 5
  IC50: 0.22 µM
[5]; control mice, n = 4
  IC50: 0.4 µM

## O=C(O)Cc1ccccc1Nc1c(Cl)cccc1Cl [Diclofenac]
COX-1 [2]
  IC50: 0.000855 µM

## O=C([O-])c1ccccc1O.[Na+] [Sodium salicylate]
COX-2 [3]; [10]
  IC50: 100 µM
COX-2 [3]; ratio of IC50, intact cells
  COX-2 selectivity COX-1/COX-2: 0.35
COX-1 [4]; [9]
  IC50: 35 µM

## CC/C=C\C/C=C\C/C=C\C/C=C\C/C=C\C/C=C\CCC(=O)O [DHA (22:6)]
COX-2 [6]
  COX-2 selectivity COX-1/COX-2: 0.6
COX-2 [6]; [11]
  IC50: 41 µM
COX-1 [7]
  IC50: 25.6 µM

## O=C(O)c1ccccc1O [Salicyclic acid]
COX-2 [6]; [11]
  IC50: > 1000 µM
COX-1 [7]
  IC50: > 1000 µM

## Cc1ccc(Cl)c(Nc2ccccc2C(=O)O)c1Cl [Meclofenemate]
COX-2 [6]
  COX-2 selectivity COX-1/COX-2: 0.15
COX-2 [6]; [11]
  IC50: 9.7 µM
COX-1 [7]
  IC50: 1.5 µM

## CC(=O)Nc1ccc(O)cc1 [Acetaminophen]
COX-1 [4]; [9]
  IC50: 2.7 µM

## CN1OCC/C(=C\c2cc(C(C)(C)C)c(O)c(C(C)(C)C)c2)C1=O [BF 389]
COX-2 [3]; [10]
  IC50: 0.03 µM
COX-2 [3]; ratio of IC50, intact cells
  COX-2 selectivity COX-1/COX-2: 5
COX-1 [4]; [9]
  IC50: 0.15 µM

## CCCCC1C(=O)N(c2ccccc2)N(c2ccccc2)C1=O [Phenylbutazone]
COX-2 [6]; [11]
  IC50: > 100 µM

## NC1=NN(c2cccc(C(F)(F)F)c2)CC1 [BW 755C]
COX-1 [4]; [8]
  IC50: 0.65 µM

## COc1ccc2cc(CC(=O)O)ccc2c1 [6-MNA]
COX-2 [6]
  COX-2 selectivity COX-1/COX-2: 0.7
COX-2 [6]; [11]
  IC50: 93.5 µM
COX-1 [7]
  IC50: 64 µM

## O=C(c1ccccc1)c1ccc2n1CCC2C(=O)O (stereo not drawn) [Ketorolac tromethamine]
COX-2 [6]
  COX-2 selectivity COX-1/COX-2: 0.5
COX-1 [7]
  IC50: 31.5 µM

## CCc1cccc2c3c([nH]c12)C(CC)(CC(=O)O)OCC3 (stereo not drawn) [Etodolac]
COX-2 [6]
  IC50: 60 µM
